Results: paper PMC10759609, “A novel PDPN antagonist peptide CY12-RP2 inhibits melanoma growth via Wnt/β-catenin and modulates the immune cells” (Journal of Experimental & Clinical Cancer Research : CR, 2024)
Peptide text beside a SMILES is read from it.

What was measured:
A375 melanoma xenograft = experiment: A375 subcutaneous xenograft, BALB/c nude mice; assay type: in vivo; details: tail vein, every two days for 15 days
Protocol: Tumorigenesis assays were conducted in vivo using BALB/c nude mice and BALB/c mice from Guangdong Medical Laboratory Animal Center. The animal study was reviewed and approved by the Administrative Committee on Animal Research of Shenzhen International Graduate School, Tsinghua University (Ethical Development No. 16, 10 November 2021). Samples with 5 × 10^5 A375 or B16F10-Luc melanoma cells were diluted in 100 μL PBS and injected subcutaneously into 6- to 8-week-old female BALB/c nude mice or BALB/c mice. 5 days later, the mice were treated with CY12-RP2 by tail vein administration at various doses (25 mg/kg and 100 mg/kg) every two days. The tumor volume and body weight were measured every 2 days, with the calculation of the tumor volume under the assumption of an ellipsoidal tumor as: tumor volume = length × width^2/2. Tumors from BALB/c nude mice were collected and photographed on day 21, while tumors from the allograft mouse model were measured using bioluminescence imaging. The blood collected from the eyes of BALB/c nude mice were stored at 4 °C for 24 h and then centrifuged for 15 min under the indicated conditions (4 °C, 3000 rpm). The supernatant was collected and assayed for drug toxicity using kits, including AST, ALT, TG, and γ-GT. […]

[1] = system: immune cells in spleen and lung; experiment: Flow cytometry of immune cells, spleen and lung, lung metastasis model; assay type: in vivo, BALB/c mice; details: lungs and spleens
Protocol: In this study, cell apoptosis was analyzed by flow cytometry using a PI/FITC-Annexin V Apoptosis Detection Kit (4A Biotech, Beijing, China). Briefly, melanoma cells were collected and washed with pre-chilled PBS, then resuspended with Annexin V staining buffer. Afterward, fluorescein isothiocyanate (FITC)-Annexin V and PI were stained for 5 min at RT, and then immediately detected using a Beckman flow cytometer. To investigate immune cell infiltration of the lung and spleen in the pulmonary metastasis mouse model, the surface and nuclear antigen staining were performed following the experimental procedure. Fluorescence-labeled mAb against CD3, CD25, CD49b, GranzymeB, CD11b, CD86, and CD206 were purchased from BioLegend (BioLegend, San Diego, CA), and CD4, CD8, and Foxp3 from Tonbo. Surface markers, including CD3, CD4, CD8, CD25, CD49b, GranzymeB, CD11b, CD86 and CD206, were firstly stained, then fixed, permeabilized, and stained for the intranuclear marker Foxp3, respectively. Finally, the samples were measured using flow cytometry.
For pulmonary metastasis assays, 6- to 8-week-old female BALB/c mice were administered with 5 × 10^5 B16F10-Luc cells via tail vein to establish an experimental pulmonary metastasis model of melanoma. CY12-RP2 was administered to the mice intravenously at high and low doses (25 mg/kg and 100 mg/kg) every two days, and the mice were sacrificed after 15 days of treatment. Pulmonary metastases were evaluated using bioluminescence imaging on the 2nd, 5th, 10th, 15th and 20th day after B16F10-Luc cells injection. Subsequently, the BALB/c mice were sacrificed, and the organs including the heart, liver, spleen, lung, and kidney were collected and imaged for evaluation of micrometastases. The xenografts and organs were kept in a 4% paraformaldehyde solution for subsequent histological assays.

[2] = system: A375 xenograft tumor cells; experiment: TUNEL immunofluorescence of xenograft tumors; assay type: in vivo, BALB/c nude mice
Protocol: Fig. S4: The inhibition of cells metastasis and invasion by CY12-RP2 can be […]
(A, B) The inhibition of CY12-RP2 on the migration capacity of melanoma cell lines was reversed by SKL2001 (A). Statistical analysis was performed to determine the migrated distance (B). The power field scale bar, 100 μm. (C, D) Effect of CY12-RP2 on the invasive ability of melanoma cell lines were reversed by SKL2001 (C).
Statistical analysis was performed to count the invaded cells (D). The power field scale bar, 100 μm. (E) Western blot assay was also performed to detect the proteins related to EMT and Wnt/β-catenin signaling pathway, including N-cadherin, Vimentin, snail, Dvl2, Phospho-β-catenin-S675, β-catenin, Phospho-GSK3β-Ser9 and GSK3β by CY12-RP2 with or without SKL2001 (50 μM). Data are presented as mean ± SD. *p < […]
Fig. S5: Effects and toxicity of CY12-RP2 in vivo
(A) TUNEL analysis of apoptosis was conducted on orthotopic xenografts tumor sections using fluorescence staining. The power field scale bar, 100 μm. (B) Fluorescence staining of Ki67 was carried out on orthotopic xenograft tumor sections.
The power field scale bar, 100 μm. (C) Serum His-CY12-RP2 levels of the orthotopic xenografts mice treated by various dosage of CY12-RP2 were measured by His-ELISA kit. […]
kit. (E) Serum ALT, AST, TG, and γ-GT levels of the orthotopic xenografts model were measured by ELISA. […]

A875 cells = experiment: Transwell matrigel invasion, A875; assay type: cell-based; details: transwell matrigel, 0, 5, 25 μM, 48 h
Protocol: For invasion assay, matrigel (Corning, New York, USA) was coated on the upper surface of the upper chamber. The upper chamber was filled with DMEM medium containing 2% FBS, while the lower chamber contained a medium supplemented with 20% FBS. In brief, melanoma cells (A375 GFP, A875 GFP, A375 PDPN^−/−, and A875 PDPN^+/+ cells) were seeded in the upper chamber of the transwell plate (Corning, New York, USA) at about 5 × 10^4 cells/well with the medium as described above. For peptide functionality experiments, A375 and A875 cells were seeded in the upper chamber of the transwell plate at a density of 5 × 10^4 cells/well with various peptide concentrations (0 μM, 5 μM, 25 μM). Transwell inserts were fixed using 4% paraformaldehyde after 48 h cell invasion, and crystalline violet was used for staining. The quantities of invading cells were quantified using ImageJ software (NIH).

## CC(C)C[C@H](NC(=O)[C@H](Cc1ccc(O)cc1)NC(=O)[C@@H](N)[C@@H](C)O)C(=O)N[C@@H](CS)C(=O)N[C@H](C(=O)N[C@@H](C)C(=O)N[C@@H](CS)C(=O)N[C@@H](CC(=O)O)C(=O)N[C@@H](Cc1ccc(O)cc1)C(=O)N[C@H](C(=O)N[C@@H](Cc1c[nH]cn1)C(=O)N[C@@H](Cc1c[nH]cn1)C(=O)O)[C@@H](C)O)[C@@H](C)O [CY12-RP2] (H-TYLCTACDYTHH-OH; N-terminus and C-terminus assumed)
A375 melanoma xenograft; 25 mg/kg and 100 mg/kg, especially 100 mg/kg
  tumor growth: significantly inhibited the tumor growth
A375 melanoma xenograft; nude mice, 25 and 100 mg/kg
  mean body weight: no significant change
[1]
  CD3 + CD4 + T cells ratio to total T cells: significantly increased
  CD3 + CD8 + T cells ratio to total T cells: significantly increased
  CD4 + CD25 + Foxp3 + Treg cells: significantly diminished
  CD11b + CD86 + M1-like macrophages proportion: significantly increased
  CD11b + CD206 + M2-like macrophages proportion: decreased
  CD49b + Granzyme B + NK cells proportion: significantly increased
[2]
  apoptotic tumor cells (TUNEL): more apoptotic tumor cells were detected
A875 cells
  invasion: could only be inhibited at high concentrations
